Results published in patent publication US10328075B2, “Method of treatment and compounds for use therein” (Baker Heart and Diabetes Institute, priority 2015, dated 2019).
No end group written: not given here.

Columns and labels:
[1] = system: myocardial I-R injury in C57BL/6 mice; assay: Myocardial I-R in mice: cardiac necrosis after 24 h reperfusion (infarct size, plasma cTnI); format: in vivo, mouse; conditions: for Cardioprotection: Infarct size: Table 9; for Cardioprotection: isolated cardio-myocytes in vitro & intact heart subjected to MI in vivo; for Reduction of infarct size / Effect on plasma cTnI levels: small molecules 50 mg/kg i.p., Ac2-26 1 mg/kg i.v.
Method: (§1) Male C57BL/6 mice were breed and housed in the AMREP Animal Centre and maintained under a 12 h light/dark cycle. After anaesthesia (i.p., ketamine 80 mg/kg, xylazine 20 mg/kg and atropine 1.2 mg/kg), mice were randomly assigned to 24 h, 48 h and 7 days reperfusion groups and underwent reversible left arterial descending (LAD) ligation as described (Gao XM, 2011; JMCC, 50; Gao XM, 2000, JMCC). Following sedation, mice were intubated and ventilated (Harvard apparatus, MA, USA) with room air mixed with oxygen (tidal volume 0.25 mL, 150 breath/min), and placed on a heating pad. A left thoractomy will be made via the ˜third intercostal space, where the beating heart was located.
(§2) The LAD was reversibly ligated using 7-0 silk suture with a slipknot enclosing two releasing rings. Regional ischaemia was confirmed by pale colour of the ligated area. Air was then evacuated from the chest, the cavity was closed and normal respiration was restored. After 40-60 min of ischaemia, blood flow through the left coronary artery was re-established by releasing the slipknot. Sham-operated mice underwent identical surgical procedures except the coronary arteries were not ligated. Three cohorts of mice were scheduled. Cohort 1 was subjected to 40 min ischaemic-24 h reperfusion for the assessment of cardiac necrosis. Cohort 2 was subjected to 60 min occlusion with 48 h reperfusion for the quantification of cardiac and systemic inflammation. The last cohort was subjected to 7 d reperfusion and early cardiac fibrosis was assessed.
(§3) Treatment with study drugs: Animals were randomly assigned to different groups and all treatments were administrated 5 min prior to reperfusion of the LAD. The peptide Ac2-26 (1 mg kg^−1) (Chemieliva, Chongqing, China) and its vehicle (10% dimethyl sulfoxide (DMSO) in saline) were intravenously (i.v.) injected via the tail vein. […] Mice then received drug or vehicle injections daily until the experimental endpoint. The two different vehicles groups reflect different study drug solubility and administration routes.
Assessment of cardiac necrosis: The optimal time point for assessment of cardiac necrosis is 24 h reperfusion after an ischaemic insult. Plasma levels of cTnI were determined using a commercially available, high-sensitivity rat cTnI ELISA kit (Life Diagnostic Inc., Pennsylvania, USA) as per the manufacturer's instructions. To evaluate the size of the infarction in relation to the area-at-risk (AAR), infarct size (IS) and LV size, 2,3,5-triphenyltetrazolium chloride (TTC) staining was performed. The LAD was tightly re-occluded in anaesthetised mice after 24 h of reperfusion and Evans blue dye (0.1 mL, 5%) was injected as a bolus into the LV. The heart was then excised and rinsed in cold saline to remove excess dye. The LV was isolated, frozen at −20° C. and then cut transversely into six to seven slices at 1.0 mm thickness. LV slices were incubated for 45 min with 1.5% TTC solution at 37° C. The presence of Evans blue indicated perfusion, whereas its absence indicated lack of perfusion to that region, whereas the brick red areas indicate viable myocardium, white or yellowish regions demarcate necrotic tissue. The slices were mounted between glass slides, and images were acquired digitally using […] microscope (Leica Wild M3B, Heerbrugg, Switzerland) coupled with digital camera (Nikon Cool-PIX4500, Tokyo, Japan). The images were analyzed using Image J analysis program (Version 1.45S, National Institute of Health, USA). The non-ischaemic zone (blue area), area-at-risk zone (AAR, red and white or yellow areas), infarct zone (white or yellow areas) and total LV were outlined and quantified blindly. Infarct size was calculated as percentage of infarct zone/risk zone.
Animal Surgery: Adult C57BL/6 mice were randomly assigned to myocardial ischemia-reperfusion (I-R) injury or sham in vivo. […]

[2] = system: myocardial I-R injury in C57BL/6 mice; assay: Myocardial I-R in mice: cardiac inflammation after 48 h reperfusion; format: in vivo, mouse; conditions: for Effect on LV injury score / cell infiltration (H&E) / Effect on LV macrophage (CD68+) signal / Reduction of LV neutrophil content (Ly-6B.2) / Effect on LV neutrophil (Ly-6B.2) signal (in words): 60 min ischaemia, 48 h reperfusion
Method: as §1, §2, §3
Assessment of cardiac inflammation: LV tissue embedded in OCT compound following 60 min ischaemia and 48 h reperfusion were sectioned at 6 μm for immunofluorescent analysis. Sections were pre-incubated with 4% paraformaidehyde for 20 min and 10% normal goat serum for a further 30 min. Sections were then incubated at room temperature (RT) with either CD68+ primary antibody or Ly-6B.2 primary antibody (1:200, ABD Serotec, Raleigh, USA) for 1 h, followed 30 min incubation with the Alexa Fluor 546 secondary antibody (1:200, Invitrogen, Carlsbad, USA), to detect cardiac macrophage and neutrophil infiltration, respectively. Finally, sections were incubated with 0.001% Hoechst 33342 (Invitrogen, Melbourne, Australia) for 30 min, to elicit nuclear staining. Single images were photographed using a Nikon A1R confocal microscope (Nikon Instruments Inc., NY, USA) under 20× magnification, and 9×9 single images were then automatically stitched together using NIS-Elements AR software (version 4.10 for Windows, Nikon Instruments Inc., NY, USA) to form each whole LV section. The images for infarct area were captured under 40× magnification, and the stitched images were then analysed using Fiji software (version 1.48c for Max OS X, National Institutes of Health, USA). The threshold was set for each image, to enable optimal sensing of red fluorescence intensity above threshold, and the software then automatically quantified these red fluorescent signals.
Assessment of cardiac histology and fibrosis: LV hearts fixed in NBF after 40 min ischaema and 7 d reperfusion were embedded in paraffin by the Alfred Pathology Service (Melbourne, Australia) and sectioned at 4 μm with a Leica 2135 microtome (Leica Microsystems, Wetzlar, Germany). Sections were stained with haematoxylin and eosin (H&E) for assessment of myocardial morphology, or picrosirius red (0.1%, Fluka, Bucks, Switzerland; pH2) for cardiac collagen deposition. […]

[3] = mice, 40 min ischaemia, 24 h reperfusion

COc1cccc(Cc2cc(C)nn(C(C)C(=O)Nc3ccc(Br)cc3)c2=O)c1 (stereo not shown) [BIDI-001, N-(4-bromophenyl)-2-[5-(3-methoxybenzyl)-3-methyl-6-oxo-6H-pyridazin-1-yl]-propionamide]
Cardioprotection: Infarct size ([1]; mice): ↓↓
Cardioprotection [1]: conferred cardioprotection
Effect on cardiac necrosis (cardioprotective action) 24 h post I-R ([1]; mice, 50 mg/kg i.p.): reduces cardiac necrosis
Reduction of infarct size [1, 3]: ~34%
Reduction of infarct size ([1]; mice, 40 min ischaemia, 24 h reperfusion, listed as Cmpd17b): ~35%
Effect on plasma cTnI levels ([1]; mice, 24 h reperfusion): significantly reduced
Effect on cardiac inflammation 48 h post I-R ([2]; 50 mg/kg i.p.): reduces cardiac inflammation
Effect on LV injury score / cell infiltration (H&E) [2]: not
Effect on LV macrophage (CD68+) signal [2]: tended to be reduced
Reduction of LV neutrophil content (Ly-6B.2) [2]: ~50%
Effect on LV neutrophil (Ly-6B.2) signal (in words) ([2]; 50 mg/kg i.p.): significantly attenuated the Ly-6B.2 neutrophil signal by almost half
Cardioprotection: Inflammation ([2]; Table 9): ↓↓

CC(C)C1C(NC(=O)Nc2ccc(Cl)cc2)C(=O)N(c2ccccc2)N1C (stereo not shown) [BIDI-002]
Effect on cardiac necrosis (cardioprotective action) 24 h post I-R ([1]; mice, 50 mg/kg i.p.): lacked cardioprotective actions
Effect on infarct size (in words) ([1]; mice, 40 min ischaemia, 24 h reperfusion, 50 mg/kg i.p.): not
Effect on plasma cTnI levels ([1]; mice, 24 h reperfusion): not seen
Effect on LV injury score / cell infiltration (H&E) [2]: significantly attenuated
Effect on LV macrophage (CD68+) signal [2]: tended to be reduced
Effect on LV neutrophil (Ly-6B.2) signal (in words) ([2]; 50 mg/kg i.p., listed as Cmpd43, 50 mg/kg): absent

Cc1cc(Cc2cccnc2)c(=O)n(CC(=O)Nc2ccc(Cl)cc2)n1 [MIPS-0010396]
Cardioprotection: Infarct size ([1]; mice): ↓↓
Cardioprotection [1]: confers cardioprotection

Ac2-26: Annexin-A1 N-terminal peptide, peptide ANX-A1 mimetic (Ac-AMVSEFLKQAWFIENEEQEYVQTVK; UniProt P04083 2-26, looked up, fragment)
Reduction of infarct size [1, 3]: ~25%
Effect on plasma cTnI levels ([1]; mice, 24 h reperfusion): non-significant trend
Effect on LV injury score / cell infiltration (H&E) [2]: significantly inhibited
Effect on LV macrophage (CD68+) signal [2]: non-significant trend
Reduction of LV neutrophil content (Ly-6B.2) [2]: approximately 35%
